The values below come from ChEMBL document CHEMBL3745611 (J Med Chem, 2015).

Molecules are shown by their SMILES. Values after ≈ are worked out from the molar mass of the structure shown.

Series [1] addresses Transitional endoplasmic reticulum ATPase (Homo sapiens, UniProt P55072). Kind of series: Inhibition of p97 ATPase (unknown origin).
Series [2] is described as follows: Apparent permeability from apical to basolateral side in human Caco2 cells. The following applies: Caco-2.
Series [3] in a line: Half life in mouse hepatocytes.
A short description of series [4]: in vivo. The following applies: mouse, po, 25 mg/kg.
Description: Cmax in mouse at 25 mg/kg, po
Series [5] in a line: Mean residence time in mouse at 25 mg/kg, po. The note with it: in vivo.
A further series relates to A549. Put plainly: Drug uptake in human A549 cells xenografted in mouse at 150 mg/kg, po measured at 2 to 24 hrs. The series is classed as ADME, organism-based. The following applies: in vivo.
A short description of series [6]: Aqueous solubility of compound. The series is classed as physicochemical. The note with it: aqueous medium.
For the next series, the system named is Plasma. Kind of series: Drug uptake in plasma of mouse xenografted with human A549 cells at 150 mg/kg, po measured at 2 to 24 hrs. The following applies: in vivo. Format: ADME, organism-based. In general terms: A xenograft is tissue or cells of one species grown in another, often human tumour cells in immunodeficient mice.
Series [7] can be described thus: in vivo. The following applies: mouse, po, 25 mg/kg. This is another data set of the same source.
Description: Tmax in mouse at 25 mg/kg, po
The nature of series [8]: Mean residence time in mouse at 3 mg/kg, iv. The following applies: in vivo.

Chain of Transitional endoplasmic reticulum ATPase (P55072 whole entry): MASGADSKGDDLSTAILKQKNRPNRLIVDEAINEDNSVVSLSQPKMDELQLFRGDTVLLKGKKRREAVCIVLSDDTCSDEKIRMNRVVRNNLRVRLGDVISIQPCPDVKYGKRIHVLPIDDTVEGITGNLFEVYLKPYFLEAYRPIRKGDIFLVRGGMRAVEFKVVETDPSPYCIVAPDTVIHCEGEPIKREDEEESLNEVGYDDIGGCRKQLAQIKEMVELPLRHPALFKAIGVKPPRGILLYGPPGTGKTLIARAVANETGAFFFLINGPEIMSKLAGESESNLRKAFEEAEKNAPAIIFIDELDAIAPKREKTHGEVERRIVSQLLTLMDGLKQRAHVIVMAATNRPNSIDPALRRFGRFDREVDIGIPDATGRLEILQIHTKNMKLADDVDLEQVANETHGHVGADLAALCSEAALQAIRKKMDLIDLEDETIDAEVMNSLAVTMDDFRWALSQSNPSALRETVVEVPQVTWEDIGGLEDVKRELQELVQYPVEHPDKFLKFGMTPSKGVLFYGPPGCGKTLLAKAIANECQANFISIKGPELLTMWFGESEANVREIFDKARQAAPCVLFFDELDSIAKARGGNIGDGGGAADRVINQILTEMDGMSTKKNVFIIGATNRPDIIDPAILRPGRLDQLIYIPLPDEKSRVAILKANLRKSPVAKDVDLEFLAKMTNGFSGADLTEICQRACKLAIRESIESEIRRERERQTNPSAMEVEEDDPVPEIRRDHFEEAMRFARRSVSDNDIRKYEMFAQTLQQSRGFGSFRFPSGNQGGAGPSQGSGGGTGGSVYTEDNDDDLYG

Broadly, the IC50 is the concentration at which inhibition is half-maximal. `O=C(CCl)Nc1cccc(NC2=NS(=O)(=O)c3ccccc32)c1` had a 50% inhibitory concentration (IC50) in series [1] of 370 nM.
Usually Papp A→B stands for the apparent permeability from the apical to the basolateral side of a cell layer. The half-life is how long it takes for the measured level to halve. A lower half-life goes with rapid decline. The Cmax is the maximum level reached in the sampled fluid or tissue. As a reminder, the MRT is the average time that molecules of a dose stay in the body. The solubility is the concentration that dissolves in the medium under given conditions. Low readings indicate a poorly soluble substance, high ones a readily soluble substance. The Tmax is the time from dosing to the highest level. Take `Cc1cc2c(C(N)=O)cccc2n1-c1nc2c(c(NCc3ccccc3)n1)COCC2` [CB-5083]: the Papp A→B in [2] turned out to be 52.4 ×10⁻⁶ cm/s. In [3], the half-life was 2.87 h. Moreover, in the series “in vivo [4]”, the maximum concentration (Cmax) amounted to 7.95 µM. The MRT in series [5] was 3.05 h; in series [8], 1.17 h. Moreover, the Drug uptake entry with A549 and in the series with Plasma was “Active” throughout. Besides, the concentration in solution in series [6] (solubility) was 32 µg/mL (≈ 77.4 µM). The time of peak concentration (Tmax) in “in vivo [7]” was 0.5 h.
